target: T1, Gag-Pol polyprotein [600-1029,C879S]/[600-1159,C879S] (Human immunodeficiency virus 1, UniProt P03366, C879S); experiment: HIV-1 RT Assay; conditions: not given
T1 construct: 600-1029; 600-1159

SMILES	IC50 [µM]
NC(=O)c1scnc1-c1cccc(-c2ccccc2)c1 [4-(3-phenylphenyl)-1,3-thiazole-5-carboxamide]	> 312
NC(=O)c1[nH]cnc1-c1cccc(-c2ccccc2)c1 [4-(3-Phenylphenyl)-1H-imidazole-5-carboxamide]	> 312
NC(=O)c1scnc1-c1cccc(I)c1 [4-(3-Iodophenyl)thiazole-5-carboxamide]	> 312

same assay, conditions: pH 7.5; 37 °C

SMILES	IC50 [µM]
NC(=O)CC(=O)c1cccc(-c2ccccc2)c1 [3-Oxo-3-(3-phenylphenyl)propanamide]	> 312
N#CCC(=O)c1cccc(I)c1 [3-(3-Iodophenyl)-3-oxopropanenitrile]	> 312
NC(=O)CC(=O)c1cccc(C(=O)c2ccccc2)c1 [3-(3-Benzoylphenyl)-3-oxopropanamide]	> 312
N#CCC(=O)c1ccc(Cl)c(Br)c1 [3-(3-Bromo-4-chlorophenyl)-3-oxopropanenitrile]	> 312
NC(=O)c1[nH]cnc1-c1cccc(C(=O)c2ccccc2)c1 [4-(3-Benzoylphenyl)-1H-imidazole-5-carboxamide]	> 312
NC(=O)CC(=O)c1cccc(Cl)c1 [3-(3-Chlorophenyl)-3-oxopropanamide]	> 312

— BindingDB's records for doi:10.1021/jm0613121 (Bar-Ilan University, 2007)
